Data from ChEMBL document CHEMBL1136101, “An evaluation of a C-glucuronide as a liver targeting group: conjugate of a glucocorticoid antagonist” (Bioorg Med Chem Lett, 2003).

Columns and labels:
[1] = Plasma concentration at 7 hr after intravenous dosing; assay type: ADME
[2] = Half-life period was determined; assay type: ADME
Glucocorticoid receptor [3] = molecular target: T1, Glucocorticoid receptor (Rattus norvegicus, UniProt P06536); test: Inhibition of prednisilone-induced tyrosine aminotransferase (TAT) activity in rat hepatocytes; assay type: cell-based, Hepatocyte
T1 sequence (P06536 whole entry): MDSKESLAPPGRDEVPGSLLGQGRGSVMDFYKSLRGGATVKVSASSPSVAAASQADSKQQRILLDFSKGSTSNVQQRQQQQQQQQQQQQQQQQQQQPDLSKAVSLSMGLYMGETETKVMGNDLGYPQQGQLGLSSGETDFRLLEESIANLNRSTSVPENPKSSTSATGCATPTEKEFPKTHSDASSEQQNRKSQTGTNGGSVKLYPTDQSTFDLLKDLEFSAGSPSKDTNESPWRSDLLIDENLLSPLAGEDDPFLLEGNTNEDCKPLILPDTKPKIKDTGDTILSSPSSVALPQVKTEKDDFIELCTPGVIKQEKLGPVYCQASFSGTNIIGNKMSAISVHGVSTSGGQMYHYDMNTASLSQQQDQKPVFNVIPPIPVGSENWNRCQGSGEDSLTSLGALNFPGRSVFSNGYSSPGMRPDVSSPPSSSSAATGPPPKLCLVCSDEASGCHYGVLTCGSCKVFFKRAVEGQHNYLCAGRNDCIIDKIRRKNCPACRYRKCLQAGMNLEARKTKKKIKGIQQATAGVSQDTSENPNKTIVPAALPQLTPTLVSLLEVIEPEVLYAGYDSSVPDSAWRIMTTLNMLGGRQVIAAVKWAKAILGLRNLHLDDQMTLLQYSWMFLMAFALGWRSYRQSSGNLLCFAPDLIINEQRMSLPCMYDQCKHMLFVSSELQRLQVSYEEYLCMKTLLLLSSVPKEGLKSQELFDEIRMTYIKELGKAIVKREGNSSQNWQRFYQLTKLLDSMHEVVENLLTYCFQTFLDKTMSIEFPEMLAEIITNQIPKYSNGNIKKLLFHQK

Glucocorticoid receptor [4] = molecular target: T2, Glucocorticoid receptor (Homo sapiens, UniProt P04150); test: Inhibition of Dexamethasone stimulated transcriptional activity in CHO cells expressing glucocorticoid receptor; assay type: functional, cell-based
T2 sequence (P04150 whole entry): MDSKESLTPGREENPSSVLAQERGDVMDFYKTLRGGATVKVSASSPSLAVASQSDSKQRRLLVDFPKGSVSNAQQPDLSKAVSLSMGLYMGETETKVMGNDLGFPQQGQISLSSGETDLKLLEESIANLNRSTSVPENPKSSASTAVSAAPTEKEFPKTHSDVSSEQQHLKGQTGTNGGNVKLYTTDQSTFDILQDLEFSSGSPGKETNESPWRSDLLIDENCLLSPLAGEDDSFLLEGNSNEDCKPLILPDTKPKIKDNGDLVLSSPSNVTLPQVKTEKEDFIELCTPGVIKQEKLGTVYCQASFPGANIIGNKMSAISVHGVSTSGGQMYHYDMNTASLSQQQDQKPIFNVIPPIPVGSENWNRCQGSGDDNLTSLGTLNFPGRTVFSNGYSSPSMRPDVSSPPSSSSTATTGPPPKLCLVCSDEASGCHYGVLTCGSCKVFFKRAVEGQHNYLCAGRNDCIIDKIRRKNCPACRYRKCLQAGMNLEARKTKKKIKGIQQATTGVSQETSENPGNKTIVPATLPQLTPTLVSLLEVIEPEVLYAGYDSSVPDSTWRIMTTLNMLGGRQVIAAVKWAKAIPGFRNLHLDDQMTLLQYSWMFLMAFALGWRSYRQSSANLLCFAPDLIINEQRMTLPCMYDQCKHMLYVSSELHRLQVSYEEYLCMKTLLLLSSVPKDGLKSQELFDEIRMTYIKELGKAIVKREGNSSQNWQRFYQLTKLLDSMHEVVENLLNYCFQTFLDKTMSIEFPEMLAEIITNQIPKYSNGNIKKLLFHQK

[5] = Plasma clearance by iv administration at a dose 5 mg/kg; settings: read-out: Clp (converted)
Glucocorticoid receptor [6] = molecular target: T2, Glucocorticoid receptor; test: Inhibition of Dexamethasone binding to Glucocorticoid receptor

concentration at 7 h [1]: 3 ng/mL
half-life [2]: 108 min
IC50 (Glucocorticoid receptor [3]): 2800 nM
IC50 (Glucocorticoid receptor [4]): 550 nM
clearance [5]: 88.3 mL/min/kg
IC50 (Glucocorticoid receptor [6]): 16.7 nM
Compound: CC#C[C@]1(O)CC[C@H]2[C@@H]3CCC4=CC(=O)CCC4=C3[C@@H](c3ccc(N(C)CCCC4OC(C(=O)O)C(O)C(O)C4O)cc3)C[C@@]21C (stereo partly specified)
